# Reference: paper PMC9078525, “Inhibitory effects of garcinone E on fatty acid synthase” (RSC Advances, 2018)
# Like-named read-outs stand apart in the source and are kept apart here.
# Experiments:
# FAS = details: cited from earlier work
# [1] = molecular target: T1, chicken FAS (overall reaction) (Gallus gallus, UniProt P12276); test: Enzyme inhibition kinetics (double reciprocal plots, variable substrate); format: biochemical; details: for Ki: secondary plot of slopes, read-out: Inhibition constant Kis; for Inhibition constant Kii: secondary plot of intercepts
# T1 construct: tissue Huadu Broiler Corporation, Beijing; host or cells: chicken liver
# T1 sequence (P12276 whole entry): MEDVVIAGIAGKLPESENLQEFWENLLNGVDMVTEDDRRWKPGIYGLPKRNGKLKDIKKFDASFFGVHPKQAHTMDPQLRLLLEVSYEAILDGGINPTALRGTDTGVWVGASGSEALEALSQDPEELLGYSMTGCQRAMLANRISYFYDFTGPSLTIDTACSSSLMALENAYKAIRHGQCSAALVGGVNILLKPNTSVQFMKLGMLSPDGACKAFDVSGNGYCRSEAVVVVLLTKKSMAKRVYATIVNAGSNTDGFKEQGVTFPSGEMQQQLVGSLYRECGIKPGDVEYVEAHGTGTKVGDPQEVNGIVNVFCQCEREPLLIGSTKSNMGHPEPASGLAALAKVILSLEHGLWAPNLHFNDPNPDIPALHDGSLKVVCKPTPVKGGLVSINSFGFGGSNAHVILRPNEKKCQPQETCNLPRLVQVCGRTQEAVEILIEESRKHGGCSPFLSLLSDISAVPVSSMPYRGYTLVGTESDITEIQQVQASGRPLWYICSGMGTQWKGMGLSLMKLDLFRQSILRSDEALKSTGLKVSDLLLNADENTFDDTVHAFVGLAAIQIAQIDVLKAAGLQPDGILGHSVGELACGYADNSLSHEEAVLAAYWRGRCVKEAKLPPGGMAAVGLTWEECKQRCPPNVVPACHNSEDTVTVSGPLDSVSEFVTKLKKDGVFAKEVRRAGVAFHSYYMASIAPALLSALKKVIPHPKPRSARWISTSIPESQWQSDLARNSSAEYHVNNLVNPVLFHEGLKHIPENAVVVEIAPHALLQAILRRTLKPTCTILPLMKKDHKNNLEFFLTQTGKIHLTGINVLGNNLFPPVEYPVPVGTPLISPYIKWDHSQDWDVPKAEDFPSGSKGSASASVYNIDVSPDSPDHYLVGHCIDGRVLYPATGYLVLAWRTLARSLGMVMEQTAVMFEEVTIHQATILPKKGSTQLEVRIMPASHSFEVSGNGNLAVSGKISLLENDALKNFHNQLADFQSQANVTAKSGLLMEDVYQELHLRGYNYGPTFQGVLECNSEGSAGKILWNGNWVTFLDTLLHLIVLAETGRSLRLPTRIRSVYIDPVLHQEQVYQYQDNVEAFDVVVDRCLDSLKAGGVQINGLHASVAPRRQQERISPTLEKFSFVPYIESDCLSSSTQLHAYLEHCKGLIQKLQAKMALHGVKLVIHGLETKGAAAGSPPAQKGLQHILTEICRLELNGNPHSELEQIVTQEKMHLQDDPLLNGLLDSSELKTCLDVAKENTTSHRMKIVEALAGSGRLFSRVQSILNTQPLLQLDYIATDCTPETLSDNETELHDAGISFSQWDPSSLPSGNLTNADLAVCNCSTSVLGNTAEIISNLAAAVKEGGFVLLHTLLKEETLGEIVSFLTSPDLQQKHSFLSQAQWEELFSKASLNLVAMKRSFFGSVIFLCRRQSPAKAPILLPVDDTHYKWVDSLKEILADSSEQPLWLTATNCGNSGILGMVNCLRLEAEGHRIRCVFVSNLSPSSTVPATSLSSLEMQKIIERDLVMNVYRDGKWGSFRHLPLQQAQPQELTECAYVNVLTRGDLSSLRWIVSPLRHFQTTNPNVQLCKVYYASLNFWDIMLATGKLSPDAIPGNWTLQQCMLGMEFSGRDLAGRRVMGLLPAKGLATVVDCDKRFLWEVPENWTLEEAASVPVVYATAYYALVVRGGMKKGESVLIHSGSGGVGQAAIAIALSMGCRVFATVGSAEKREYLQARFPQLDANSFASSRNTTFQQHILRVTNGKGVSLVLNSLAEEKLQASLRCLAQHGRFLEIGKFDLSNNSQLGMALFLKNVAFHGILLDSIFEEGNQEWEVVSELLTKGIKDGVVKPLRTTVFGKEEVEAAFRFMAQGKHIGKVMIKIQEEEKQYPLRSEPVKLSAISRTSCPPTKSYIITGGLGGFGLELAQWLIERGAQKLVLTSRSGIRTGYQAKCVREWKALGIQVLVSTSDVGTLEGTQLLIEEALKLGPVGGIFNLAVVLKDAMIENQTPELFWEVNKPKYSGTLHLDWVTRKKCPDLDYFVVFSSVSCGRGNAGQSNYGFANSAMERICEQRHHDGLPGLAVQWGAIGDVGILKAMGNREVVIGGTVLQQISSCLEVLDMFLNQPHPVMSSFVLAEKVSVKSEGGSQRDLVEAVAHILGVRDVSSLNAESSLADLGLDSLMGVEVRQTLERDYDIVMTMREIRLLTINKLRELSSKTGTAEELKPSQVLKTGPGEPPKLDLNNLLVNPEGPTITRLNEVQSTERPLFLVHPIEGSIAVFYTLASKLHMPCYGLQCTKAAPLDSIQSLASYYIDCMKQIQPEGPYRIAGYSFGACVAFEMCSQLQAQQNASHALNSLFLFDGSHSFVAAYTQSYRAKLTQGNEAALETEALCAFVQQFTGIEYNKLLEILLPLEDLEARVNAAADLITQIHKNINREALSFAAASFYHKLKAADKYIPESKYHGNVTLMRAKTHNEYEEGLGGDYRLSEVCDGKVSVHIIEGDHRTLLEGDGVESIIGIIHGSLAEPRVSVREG
# From the text: Possible interference by the inhibitor at each substrate binding site was examined by holding the concentration of the inhibitor at several fixed levels respectively, and increasing one substrate concentration while keeping the concentrations of the other substrates constant. Double reciprocal plots for every concentration of the inhibitor were yielded to estimate the competitive relationship between the variable substrate and inhibitor concentrations. This study is based on fast-binding inhibition.
# Inhibition kinetics study was carried out to elucidate the mechanism of the reversible inhibition of FAS by garcinone E. Possible interference by garcinone E at each substrate-binding site was examined by holding the concentration of garcinone E at a constant value, and measuring the effect of increasing one substrate concentration (the concentrations of the other two substrates were fixed) on the initial reaction rate. Double-reciprocal plots of the results (Fig. 3A–C) yielded three families of straight lines, which had different intersections, for three substrates of FAS. […] However, the lines for NADPH (Fig. 3C) intersected on the X axis, from which it was concluded that garcinone E was a typically noncompetitive inhibitor of FAS against NADPH.
# Fig. 3 Lineweaver–Burke plots for inhibition of FAS activity by garcinone E. Double reciprocal plots for inhibition of FAS by garcinone E. The activity of the overall reaction of FAS was measured. (A) The concentrations of Mal-CoA and NADPH were fixed at 10 μM and 35 μM, respectively. Ac-CoA was the variable substrate. […] (B) The concentrations of Ac-CoA and NADPH were fixed at 3 μM and 35 μM, respectively. Mal-CoA was the variable substrate. […] (C) The concentrations of Ac-CoA and Mal-CoA were fixed at 3 μM and 10 μM, respectively. NADPH was the variable substrate. […] Each datum was the mean from 2–5 experiments.
# [2] = molecular target: T1, chicken FAS (overall reaction); test: Fast-binding inhibition of FAS overall reaction (NADPH absorption at 340 nm); format: biochemical; details: fast-binding reversible inhibition, 37 °C; read-out: IC50 (half-inhibitory concentration), overall reaction of FAS
# Procedure: (§1) The preparation of FAS from chicken liver (Huadu Broiler Corporation, Beijing) was performed as described previously.[24] The amino acid sequence of chicken FAS has 63% identity with the sequence of human enzyme.[25] All animal operations followed the Guidelines for the Care and Use of Laboratory Animals established by the National Research Council (US) Institute for Laboratory Animal Research. The purified FAS was homogenized by polyacrylamide gel electrophoresis in the presence and absence of sodium dodecyl sulfate, respectively.
# (§2) The FAS activity was measured at 37 °C by spectrophotometer at 340 nm of NADPH absorption. The overall reaction system contained 100 mM KH2PO4–K2HPO4 buffer, 1 mM EDTA, 1 mM dithiothreitol, 3 μM Ac-CoA, 10 μM Mal-CoA, 35 μM NADPH, and 10 μg FAS in a total volume of 2 ml as previously described.[26,27] The assay for β-ketoacyl reduction activity of FAS was catalyzed by KR containing 100 mM KH2PO4–K2HPO4 buffer, 200 mM ethyl acetoacetate, 35 μM NADPH, and 20 μg FAS in a total volume of 2 ml (pH 7.0).
# Reversible inhibition was determined by adding the inhibitor to the reaction system before the reaction was initiated. The activities of FAS in the presence and absence of garcinone E (dissolved in DMSO) were designated as Ai and A0 respectively. The value of Ai/A0 × 100% was defined as the relative activity (R.A.) of FAS. […]
# [3] = molecular target: T1, chicken FAS (overall reaction); test: Time-dependent (slow-binding irreversible) inactivation of FAS overall reaction; format: biochemical
# Procedure: (§3) Assay of time-dependent inhibition activity was carried out as previous described.[13] The FAS solution was mixed with garcinone E and incubated at 25 °C, and then aliquots were taken to measure the remaining activity at the indicated time intervals to obtain the time course. […] The rate constant of FAS inactivation can be calculated from a semi-log plot of the time course, which is based upon the formula ln At/A0 = −kobst. The At/A0 expresses the remaining activity at t time, and kobs is the observed rate constant. Based on earlier studies, the inhibition of FAS activity is due to both fast-binding and time-dependent inhibitions, although sometimes the fast-binding reversible inhibition is not potent enough to affect the enzyme.
# chicken FAS = molecular target: T2, chicken FAS (Gallus gallus, UniProt P12276); test: Substrate protection for time-dependent inactivation of FAS; format: biochemical; details: 10.0 μM garcinone E
# T2 construct: tissue Huadu Broiler Corporation, Beijing; host or cells: chicken liver
# T2 sequence (P12276 whole entry): as above
# Procedure: as §3
# Furthermore, substrate protection for time-dependent inhibition was examined in the measurement of FAS inactivation by garcinone E with 10 μM Ac-CoA, 10 μM Mal-CoA, or 10 μM NADPH, respectively. Inactivation in the same condition but without any substrate was the control. […] Therefore, the substrates of Mal-CoA and NADPH had no obvious protection effect. However, the inactivation was slowed by Ac-CoA.
# [4] = molecular target: T3, KR (β-ketoacyl reductase) of chicken FAS (Gallus gallus, UniProt P12276); test: Time-dependent inactivation of KR reaction of FAS; format: biochemical
# T3 construct: tissue Huadu Broiler Corporation, Beijing; host or cells: chicken liver
# T3 sequence (P12276 whole entry): as above
# Procedure: (§4) The activity of KR was determined at 37 °C by measuring the change of absorption at 340 nm. The KR reaction mixture (2 ml) contained 40 mM ethyl acetoacetate, 35 μM NADPH, 1 mM EDTA, 1 mM DTT and 10 μg of FAS in 100 mM phosphate buffer, pH 7.0.[28]
# as §3
# [5] = molecular target: T3, KR (β-ketoacyl reductase) of chicken FAS; test: Fast-binding inhibition of β-ketoacyl reduction (KR) activity of FAS; format: biochemical; details: fast-binding reversible inhibition, 37 °C
# Procedure: as §1, §2, §4
compound,measurement,setting,value
"O=C(O[C@@H]1Cc2c(O)cc(O)cc2O[C@@H]1c1cc(O)c(O)c(O)c1)c1cc(O)c(O)c(O)c1 [EGCG, epigallocatechin gallate]",IC50,FAS,52 µM
C/C=C/C/C=C/CCC(=O)[C@H]1O[C@H]1C(N)=O [cerulenin],IC50,FAS,89 µM
"CC(C)=CCc1c(O)cc2oc3c(CC=C(C)C)c(O)c(O)c(CC=C(C)C)c3c(=O)c2c1O [garcinone E, 2,3,6,8-tetrahydroxy-1,4,7-tris(3-methylbut-2-enyl)-9H-xanthen-9-one]",Inhibitory manner,"[1]; variable substrate Ac-CoA, Mal-CoA 10 μM, NADPH 35 μM",Competitive
same,Ki,[1]; variable substrate Ac-CoA,1.77 µM
same,Inhibitory manner,"[1]; variable substrate Mal-CoA, Ac-CoA 3 μM, NADPH 35 μM",Mixed competitive and noncompetitive
same,Inhibition constant Kii,"[1]; variable substrate Mal-CoA, binding with enzyme-substrate complex",5.99 µM
same,Ki,[1]; variable substrate Mal-CoA,3.89 µM
same,Inhibitory manner,"[1]; variable substrate NADPH, Ac-CoA 3 μM, Mal-CoA 10 μM",Noncompetitive
same,Inhibition constant Kii,[1]; variable substrate NADPH,2.67 µM
same,Ki,[1]; variable substrate NADPH,1.94 µM
same,IC50,[2],3.3 µM
same,"time-dependent (slow-binding irreversible) inhibition of FAS overall reaction, in words",[3],slow-binding irreversible inhibition
same,fold difference in inactivation rate between overall reaction and KR,[3]; 20.0 μM garcinone E,more than 20 fold
same,kobs for inactivation of FAS,chicken FAS; no protection,17.4 10^−3 min^−1
same,reduction of apparent rate constant by pre-incubation with substrate,chicken FAS; pre-incubation with Mal-CoA and NADPH,less than 10%
same,kobs for inactivation of FAS,chicken FAS; protection by 10 μM Ac-CoA,5.3 10^−3 min^−1
same,kobs for inactivation of FAS,chicken FAS; protection by 10 μM Mal-CoA,16.6 10^−3 min^−1
same,kobs for inactivation of FAS,chicken FAS; protection by 10 μM NADPH,15.9 10^−3 min^−1
same,"irreversible inhibition on KR, in words",[4],very weak
same,"kobs of FAS inactivation, KR","[4]; 20.0 μM garcinone E, incubated at 25 °C",0.0004 min⁻¹
same,IC50,[5],14.6 µM
COc1c(O)cc2oc3cc(O)c(CC=C(C)C)c(O)c3c(=O)c2c1CC=C(C)C [α-mangostin],"time-dependent (slow-binding irreversible) inhibition of FAS overall reaction, in words",[3],none of them showed slow-binding inactivation
COc1cc2oc3cc(O)c(OC)c(CC=C(C)C)c3c(=O)c2c(O)c1CC=C(C)C [β-mangostin],"time-dependent (slow-binding irreversible) inhibition of FAS overall reaction, in words",[3],none of them showed slow-binding inactivation
CC(C)=CCc1c(O)cc2oc3cc(O)c(O)c(CC=C(C)C)c3c(=O)c2c1O [γ-mangostin],"time-dependent (slow-binding irreversible) inhibition of FAS overall reaction, in words",[3],none of them showed slow-binding inactivation
